Several values for one entry are separate records, joined by “and”; a condition that tells them apart may be missing. Identical values can stand only once. Like-named read-outs stand apart in the source and are kept apart here.
Molecular target: C. elegans (N2) complex I (NADH:ubiquinone oxidoreductase) (Caenorhabditis elegans, UniProt P24887+Q93873+Q94360)
Assay: biochemical
Type: biochemical
Conditions: for remaining activity at 0.125 µM / remaining activity at 0.313 µM / remaining activity at 0.625 µM / remaining activity at 1.5 µM / remaining activity at 3 µM / remaining activity at 15 µM / remaining activity at 37.5 µM / remaining activity at 75 µM: wild-type C. elegans mitochondria, read-out: percent (%) in vitro complex I activity relative to solvent control
Method in brief: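 Complex I rate: initial linear slope of A600 over 15 min, expressed as percent of solvent control. Triple freeze-thawed mitochondria (0.2 mg/mL) in KPi pH 7.5, BSA 3 mg/mL, NADH 80 μM, decylubiquinone 60 μM, DCIP 160 μM, antimycin A, KCN.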

[1] = C. elegans, Mean of replicates, read-out: Complex I activity, dose-response data
[2] = C. elegans, individual replicates (Rep), read-out: Complex I activity, dose-response data

C. elegans (N2) complex I (NADH:ubiquinone oxidoreductase), sequence (Q94360 17-199): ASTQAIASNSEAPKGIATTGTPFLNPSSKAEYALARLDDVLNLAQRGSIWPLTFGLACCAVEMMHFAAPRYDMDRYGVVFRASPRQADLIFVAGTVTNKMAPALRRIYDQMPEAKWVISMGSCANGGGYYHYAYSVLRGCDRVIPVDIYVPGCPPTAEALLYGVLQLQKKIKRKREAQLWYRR
C. elegans (N2) complex I (NADH:ubiquinone oxidoreductase), sequence (P24887 whole entry): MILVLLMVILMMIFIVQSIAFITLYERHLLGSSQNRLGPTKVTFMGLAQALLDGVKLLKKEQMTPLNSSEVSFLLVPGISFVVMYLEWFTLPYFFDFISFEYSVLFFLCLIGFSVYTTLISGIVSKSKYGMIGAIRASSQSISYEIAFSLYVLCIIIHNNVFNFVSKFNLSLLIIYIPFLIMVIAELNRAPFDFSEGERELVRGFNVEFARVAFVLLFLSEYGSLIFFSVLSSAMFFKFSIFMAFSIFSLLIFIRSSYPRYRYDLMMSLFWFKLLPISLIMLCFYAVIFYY
C. elegans (N2) complex I (NADH:ubiquinone oxidoreductase), sequence (Q93873 31-482): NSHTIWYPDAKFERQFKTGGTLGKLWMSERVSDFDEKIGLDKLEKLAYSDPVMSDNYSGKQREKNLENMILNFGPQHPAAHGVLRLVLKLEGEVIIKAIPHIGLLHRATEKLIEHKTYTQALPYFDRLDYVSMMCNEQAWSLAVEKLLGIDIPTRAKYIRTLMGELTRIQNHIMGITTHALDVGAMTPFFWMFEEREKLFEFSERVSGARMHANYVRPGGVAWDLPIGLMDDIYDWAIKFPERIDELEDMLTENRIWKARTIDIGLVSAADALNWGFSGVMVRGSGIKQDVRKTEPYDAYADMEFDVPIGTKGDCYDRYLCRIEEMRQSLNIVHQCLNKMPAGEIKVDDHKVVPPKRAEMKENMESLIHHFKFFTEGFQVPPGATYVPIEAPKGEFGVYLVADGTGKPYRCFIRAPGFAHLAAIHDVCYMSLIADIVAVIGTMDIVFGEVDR

Q: For `COc1cc2c(cc1OC)C(c1ccc(-c3ccc(Cl)c(Cl)c3)o1)=NCC2` [NPD3577], which remaining activity at 0.125 µM (mean of replicates) is on record?
A: Its remaining activity at 0.125 µM is 96.8%.

Q: And the remaining activity at 0.125 µM (single replicate)?
A: Its remaining activity at 0.125 µM is 96.7%.

Q: And the remaining activity at 0.313 µM (mean of replicates)?
A: Its remaining activity at 0.313 µM is 92.4%.

Q: What about the remaining activity at 0.313 µM (single replicate) of the same molecule?
A: The remaining activity at 0.313 µM was 92.5%.

Q: And the remaining activity at 0.625 µM (mean of replicates)?
A: The remaining activity at 0.625 µM was 100%.

Q: And the remaining activity at 0.625 µM (single replicate)?
A: The remaining activity at 0.625 µM was 100%.

Q: What about the remaining activity at 1.5 µM (mean of replicates) of the same molecule?
A: The remaining activity at 1.5 µM was 94.3%.

Q: And the remaining activity at 1.5 µM (single replicate)?
A: The remaining activity at 1.5 µM was 96.2%.

Q: And the remaining activity at 3 µM (mean of replicates)?
A: Its remaining activity at 3 µM is 92.6%.

Q: And the remaining activity at 3 µM (single replicate)?
A: Its remaining activity at 3 µM is 93.9%.

Q: What about the remaining activity at 15 µM (mean of replicates) of the same molecule?
A: The remaining activity at 15 µM was 62.2%.

Q: What about the remaining activity at 15 µM (single replicate) of the same molecule?
A: The remaining activity at 15 µM was 62.5%.

Q: And the remaining activity at 37.5 µM (mean of replicates)?
A: The remaining activity at 37.5 µM was 42.6%.

Q: What about the remaining activity at 37.5 µM (single replicate) of the same molecule?
A: The remaining activity at 37.5 µM was 37.8%.

Q: What about the remaining activity at 75 µM (mean of replicates) of the same molecule?
A: The remaining activity at 75 µM was 40.7%.

Q: And the remaining activity at 75 µM (single replicate)?
A: The remaining activity at 75 µM was 36.7%.

Q: And the activity at 100 µM (100 µM compound, relative to solvent control, mean (SEM), read-out: % Activity Complex I)?
A: Its activity at 100 µM is 36.8%.

Q: What about the “Percent in vitro activity, Complex I (single replicate Rep1-Rep4)” value (100 μM of NPD compound, C. elegans mitochondria, individual biological replicates, 100 µM) of the same molecule?
A: The value was 43.782% and 34.898% and 43.141%.

Q: And the activity at 100 µM (100 μM of NPD compound, C. elegans mitochondria, individual biological replicates, read-out: Percent in vitro activity, Complex I (single replicate Rep1-Rep4))?
A: Its activity at 100 µM is 25.5%.

Q: What about the activity at 100 µM (100 μM of NPD compound, C. elegans mitochondria, mean of four biological replicates, read-out: Percent in vitro activity, Complex I (Mean)) of the same molecule?
A: The activity at 100 µM was 36.8%.

Q: What about the activity at 0.0001 µM [1] of the same molecule?
A: Its activity at 0.0001 µM is 100%.

Q: And the activity at 0.0001 µM [2]?
A: Its activity at 0.0001 µM is 100%.

Q: And the activity at 0.0005 µM (C. elegans, dose 0.0005 µM, Mean of replicates, read-out: Complex I activity, dose-response data)?
A: The activity at 0.0005 µM was 101%.

Q: And the “Complex I activity, dose-response data” value (C. elegans, dose 0.0005 µM, individual replicates (Rep))?
A: Its value is 102.944 and 101.488 and 99.964.

Q: What about the activity at 0.0005 µM (C. elegans, dose 0.0005 µM, individual replicates (Rep), read-out: Complex I activity, dose-response data) of the same molecule?
A: The activity at 0.0005 µM was 99.8%.

Q: What about the activity at 0.001 µM (C. elegans, dose 0.001 µM, Mean of replicates, read-out: Complex I activity, dose-response data) of the same molecule?
A: The activity at 0.001 µM was 107%.

Q: What about the “Complex I activity, dose-response data” value (C. elegans, dose 0.001 µM, individual replicates (Rep)) of the same molecule?
A: The value was 100.123 and 101.601 and 102.139 and 122.392.

Q: What about the activity at 0.0025 µM (C. elegans, dose 0.0025 µM, Mean of replicates, read-out: Complex I activity, dose-response data) of the same molecule?
A: The activity at 0.0025 µM was 108%.

Q: What about the “Complex I activity, dose-response data” value (C. elegans, dose 0.0025 µM, individual replicates (Rep)) of the same molecule?
A: The value was 107.455 and 110.182 and 112.130.

Q: What about the activity at 0.0025 µM (C. elegans, dose 0.0025 µM, individual replicates (Rep), read-out: Complex I activity, dose-response data) of the same molecule?
A: Its activity at 0.0025 µM is 102%.

Q: And the activity at 0.005 µM (C. elegans, dose 0.005 µM, Mean of replicates, read-out: Complex I activity, dose-response data)?
A: Its activity at 0.005 µM is 104%.

Q: And the “Complex I activity, dose-response data” value (C. elegans, dose 0.005 µM, individual replicates (Rep))?
A: Its value is 104.715 and 108.539 and 101.437.

Q: And the activity at 0.005 µM (C. elegans, dose 0.005 µM, individual replicates (Rep), read-out: Complex I activity, dose-response data)?
A: Its activity at 0.005 µM is 100%.

Q: And the activity at 0.013 µM (C. elegans, dose 0.013 µM, Mean of replicates, read-out: Complex I activity, dose-response data)?
A: The activity at 0.013 µM was 97.9%.

Q: What about the “Complex I activity, dose-response data” value (C. elegans, dose 0.013 µM, individual replicates (Rep)) of the same molecule?
A: The value was 98.157 and 103.636 and 111.482 and 78.345.

Q: What about the activity at 0.025 µM (C. elegans, dose 0.025 µM, Mean of replicates, read-out: Complex I activity, dose-response data) of the same molecule?
A: Its activity at 0.025 µM is 98.1%.

Q: What about the “Complex I activity, dose-response data” value (C. elegans, dose 0.025 µM, individual replicates (Rep)) of the same molecule?
A: The value was 97.798 and 102.639 and 113.034 and 78.823.

Q: And the activity at 0.063 µM (C. elegans, dose 0.063 µM, Mean of replicates, read-out: Complex I activity, dose-response data)?
A: Its activity at 0.063 µM is 101%.

Q: And the “Complex I activity, dose-response data” value (C. elegans, dose 0.063 µM, individual replicates (Rep))?
A: Its value is 101.240 and 102.785 and 102.967.

Q: And the activity at 0.063 µM (C. elegans, dose 0.063 µM, individual replicates (Rep), read-out: Complex I activity, dose-response data)?
A: The activity at 0.063 µM was 97%.

Q: What about the activity at 0.125 µM (C. elegans, dose 0.125 µM, Mean of replicates, read-out: Complex I activity, dose-response data) of the same molecule?
A: Its activity at 0.125 µM is 96.8%.

Q: What about the “Complex I activity, dose-response data” value (C. elegans, dose 0.125 µM, individual replicates (Rep)) of the same molecule?
A: The value was 97.708 and 99.291 and 93.354.

Q: What about the activity at 0.125 µM (C. elegans, dose 0.125 µM, individual replicates (Rep), read-out: Complex I activity, dose-response data) of the same molecule?
A: Its activity at 0.125 µM is 96.7%.

Q: What about the activity at 0.313 µM (C. elegans, dose 0.313 µM, Mean of replicates, read-out: Complex I activity, dose-response data) of the same molecule?
A: The activity at 0.313 µM was 92.4%.

Q: And the “Complex I activity, dose-response data” value (C. elegans, dose 0.313 µM, individual replicates (Rep))?
A: The value was 97.105 and 93.945 and 86.205.

Q: What about the activity at 0.313 µM (C. elegans, dose 0.313 µM, individual replicates (Rep), read-out: Complex I activity, dose-response data) of the same molecule?
A: Its activity at 0.313 µM is 92.5%.

Q: And the activity at 0.625 µM [1]?
A: Its activity at 0.625 µM is 100%.

Q: What about the activity at 0.625 µM [2] of the same molecule?
A: Its activity at 0.625 µM is 100%.

Q: What about the activity at 1.5 µM (C. elegans, dose 1.5 µM, Mean of replicates, read-out: Complex I activity, dose-response data) of the same molecule?
A: The activity at 1.5 µM was 94.3%.

Q: And the “Complex I activity, dose-response data” value (C. elegans, dose 1.5 µM, individual replicates (Rep))?
A: The value was 94.111 and 90.424 and 96.414.

Q: And the activity at 1.5 µM (C. elegans, dose 1.5 µM, individual replicates (Rep), read-out: Complex I activity, dose-response data)?
A: The activity at 1.5 µM was 96.2%.

Q: What about the activity at 3 µM (C. elegans, dose 3 µM, Mean of replicates, read-out: Complex I activity, dose-response data) of the same molecule?
A: Its activity at 3 µM is 92.6%.

Q: And the “Complex I activity, dose-response data” value (C. elegans, dose 3 µM, individual replicates (Rep))?
A: The value was 91.612 and 93.694 and 91.331.

Q: What about the activity at 3 µM (C. elegans, dose 3 µM, individual replicates (Rep), read-out: Complex I activity, dose-response data) of the same molecule?
A: The activity at 3 µM was 93.9%.

— PMC11079024, “Identification of a family of species-selective complex I inhibitors as potential anthelmintics” (Nature Communications, 2024)
